Some results are limits rather than exact numbers.

By IC50 is commonly meant the concentration at which inhibition is half-maximal.

In this assay the target is T1, ALK (baculovirus expressed human ALK kinase domain F1098-K1410) (Homo sapiens, UniProt Q9UM73).
T1 construct: baculovirus expressed human ALK kinase domain F1098-K1410; made in house
T1 sequence (Q9UM73 1098-1410): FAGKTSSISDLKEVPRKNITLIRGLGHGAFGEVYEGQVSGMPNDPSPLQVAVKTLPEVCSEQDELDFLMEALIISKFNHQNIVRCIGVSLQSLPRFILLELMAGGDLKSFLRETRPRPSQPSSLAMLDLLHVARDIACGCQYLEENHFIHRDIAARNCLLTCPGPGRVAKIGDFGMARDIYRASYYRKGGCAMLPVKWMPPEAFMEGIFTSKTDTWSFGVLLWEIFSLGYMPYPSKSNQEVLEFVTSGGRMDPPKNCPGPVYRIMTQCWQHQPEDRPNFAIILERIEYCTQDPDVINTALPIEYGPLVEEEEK
Description: Luciferase-Coupled Chemiluminescent Kinase assay (LCCA), ALK biochemical activity. As to conditions: inhibition of ALK; mean values; 1 μM ATP, 4 μM poly-AEKY, 12 nM ALK, 2 hours ambient temperature. How it is done:
ALK biochemical activity was assessed using a Luciferase-Coupled Chemiluminescent Kinase assay (LCCA) format in which kinase activity was measured as the percent ATP remaining following the kinase reaction. ATP remaining after the kinase reaction was detected by luciferase-luciferin-coupled chemiluminescence.
The reaction was initiated by mixing test compounds, 1 μM ATP, 4 μM poly-AEKY and 12 nM ALK (baculovirus expressed human ALK kinase domain F1098-K1410) in a 20 μL assay buffer ([…] pH 7.5, 10 mM MgCl2, 0.02% Triton X-100, 100 mM DTT, 2 mM MnCl2). The mixture was incubated at ambient temperature for 2 hours after which 20 μL luciferase-luciferin mix was added and the chemiluminescent signal read using a Wallac Victor^2 reader. The luciferase-luciferin mix consists of 50 mM HEPES, pH 7.8, 8.5 μg/mL oxalic acid (pH 7.8), 5 (or 50) mM DTT, 0.4% Triton X-100, 0.25 mg/mL coenzyme A, 63 μM AMP, 28 μg/mL luciferin and 40,000 units of light/mL luciferase.
Consumption of ATP by ALK can thus be quantified and utilized as a measure of inhibition of ALK activity by compounds described herein. By employing serial dilutions of compounds to be tested, the ability of test compounds to inhibit ALK activity can be determined.
`COc1cc2c(-c3ccc(O)c(Cl)c3)nc3[nH]nc(C)c3c2cc1OCC1CCN(C(C)=O)CC1` [Example 106, 4-[8-{[(1-acetylpiperidin-4-yl)methyl]oxy}-1-methyl-7-(methyloxy)-3H-pyrazolo[3,4-c]isoquinolin-5-yl]-2-chlorophenol] displayed an IC50 of at most 99 nM. The same measure for `COc1ccc2c(-c3ccc(O)c(Br)c3)nc3[nH]nc(C)c3c2c1OCC1CCN(C(C)=O)CC1` [Example 107, 4-[9-{[(1-acetylpiperidin-4-yl)methyl]oxy}-1-methyl-8-(methyloxy)-3H-pyrazolo[3,4-c]isoquinolin-5-yl]-2-bromophenol]: at most 99 nM; for `COCCOc1ccc2c(-c3ccc(O)c(Cl)c3)nc3[nH]nc(C)c3c2c1OC` [Example 108, 2-chloro-4-(1-methyl-9-(methyloxy)-8-{[2-(methyloxy)ethyl]oxy}-3H-pyrazolo[3,4-c]isoquinolin-5-yl)phenol]: at most 99 nM.

The compound `COc1cc2c(cc1F)c(-c1ccc(O)cc1)nc1[nH]nc(C)c12` [Example 109, 4-[7-fluoro-1-methyl-8-(methyloxy)-3H-pyrazolo[3,4-c]isoquinolin-5-yl]phenol] returned a half-maximal inhibitory concentration (IC50) of 100 to 999 nM.

`COCCOc1ccc2c(-c3ccc(O)c(Cl)c3)nc3[nH]nc(C)c3c2c1OCCOC` [Example 110, 2-chloro-4-(1-methyl-8,9-bis{[2-(methyloxy)ethyl]oxy}-3H-pyrazolo[3,4-c]isoquinolin-5-yl)phenol] showed a concentration for half-maximal inhibition (IC50) of at most 99 nM. Take `COCCOc1ccc2c(-c3ccc(O)c(Br)c3)nc3[nH]nc(C)c3c2c1OCCOC` [Example 111, 2-bromo-4-(1-methyl-8,9-bis{[2-(methyloxy)ethyl]oxy}-3H-pyrazolo[3,4-c]isoquinolin-5-yl)phenol]: the IC50 was at most 99 nM.

`COCCOc1c(OC)ccc2c(-c3ccc(O)c(Cl)c3)nc3[nH]nc(C)c3c12` [Example 112, 2-chloro-4-(1-methyl-8-(methyloxy)-9-{[2-(methyloxy)ethyl]oxy}-3H-pyrazolo[3,4-c]isoquinolin-5-yl)phenol] had an IC50 of at most 99 nM. The same measure for `COCCOc1c(OC)ccc2c(-c3ccc(O)c(Br)c3)nc3[nH]nc(C)c3c12` [Example 113, 2-bromo-4-(1-methyl-8-(methyloxy)-9-{[2-(methyloxy)ethyl]oxy}-3H-pyrazolo[3,4-c]isoquinolin-5-yl)phenol]: at most 99 nM. With `COc1cc2c(-c3ccc(O)cc3F)nc3[nH]nc(C)c3c2cc1OC` [Example 114, 3-fluoro-4-[1-methyl-7,8-bis(methyloxy)-3H-pyrazolo[3,4-c]isoquinolin-5-yl]phenol] the figure was at most 99 nM; with `COCCOc1cc2c(cc1OC)c(-c1ccc(O)c(Cl)c1)nc1[nH]nc(C)c12` [Example 115, 2-chloro-4-(1-methyl-7-(methyloxy)-8-{[2-(methyloxy)ethyl]oxy}-3H-pyrazolo[3,4-c]isoquinolin-5-yl)phenol], at most 99 nM; with `COCCOc1cc2c(cc1OC)c(-c1ccc(O)c(Br)c1)nc1[nH]nc(C)c12` [Example 116, 2-bromo-4-(1-methyl-7-(methyloxy)-8-{[2-(methyloxy)ethyl]oxy}-3H-pyrazolo[3,4-c]isoquinolin-5-yl)phenol], at most 99 nM. `COCCOc1cc2c(-c3ccc(O)c(Cl)c3)nc3[nH]nc(C)c3c2cc1OCCOC` [Example 117, 2-chloro-4-(1-methyl-7,8-bis{[2-(methyloxy)ethyl]oxy}-3H-pyrazolo[3,4-c]isoquinolin-5-yl)phenol]: the concentration for half-maximal inhibition (IC50) was 100 to 999 nM.

`COCCOc1cc2c(-c3ccc(O)c(Br)c3)nc3[nH]nc(C)c3c2cc1OCCOC` [Example 118, 2-bromo-4-(1-methyl-7,8-bis{[2-(methyloxy)ethyl]oxy}-3H-pyrazolo[3,4-c]isoquinolin-5-yl)phenol]: the IC50 lay in the range of 100 to 999 nM. With `COCCOc1cc(F)c2c(-c3ccc(O)cc3)nc3[nH]nc(C)c3c2c1F` [Example 120, 4-(6,9-difluoro-1-methyl-8-{[2-(methyloxy)ethyl]oxy}-3H-pyrazolo[3,4-c]isoquinolin-5-yl)phenol] the figure was at most 99 nM; with `COc1cc2c(-c3cc(Cl)c(O)cc3F)nc3[nH]nc(C)c3c2cc1OC` [Example 121, 2-chloro-5-fluoro-4-[1-methyl-7,8-bis(methyloxy)-3H-pyrazolo[3,4-c]isoquinolin-5-yl]phenol], at most 99 nM; with `COc1cc2c(-c3cc(Br)c(O)cc3F)nc3[nH]nc(C)c3c2cc1OC` [Example 122, 2-bromo-5-fluoro-4-[1-methyl-7,8-bis(methyloxy)-3H-pyrazolo[3,4-c]isoquinolin-5-yl]phenol], at most 99 nM. With `COc1cc2c(-c3ccc(O)cc3)cc3[nH]nc(C)c3c2c(F)c1OC` [Example 123, 4-[9-fluoro-1-methyl-7,8-bis(methyloxy)-3H-benzo[e]indazol-5-yl]phenol], the IC50 fell in the range of 100 to 999 nM.

On to `COCCOc1cc2c(cc1OC)c(-c1ccc(O)cc1F)nc1[nH]nc(C)c12` [Example 125, 3-fluoro-4-(1-methyl-7-(methyloxy)-8-{[2-(methyloxy)ethyl]oxy}-3H-pyrazolo[3,4-c]isoquinolin-5-yl)phenol], for which the IC50 is at most 99 nM. With `COCCOc1cc(F)c2c(-c3ccc(O)cc3F)nc3[nH]nc(C)c3c2c1F` [Example 126, 4-(6,9-difluoro-1-methyl-8-{[2-(methyloxy)ethyl]oxy}-3H-pyrazolo[3,4-c]isoquinolin-5-yl)-3-fluorophenol] the figure was at most 99 nM. With `COCCOc1cc(F)c2c(-c3ccc(O)c(Cl)c3)nc3[nH]nc(C)c3c2c1F` [Example 127, 2-chloro-4-(6,9-difluoro-1-methyl-8-{[2-(methyloxy)ethyl]oxy}-3H-pyrazolo[3,4-c]isoquinolin-5-yl)phenol] the figure was at most 99 nM. With `CCOc1cc2c(cc1OC)c(-c1ccc(O)c(Cl)c1)nc1[nH]nc(C)c12` [Example 128, 2-chloro-4-[8-(ethyloxy)-1-methyl-7-(methyloxy)-3H-pyrazolo[3,4-c]isoquinolin-5-yl]phenol] the figure was 100 to 999 nM; with `COc1cc2c(c(-c3ccc(O)c(Cl)c3)nc3[nH]nc(C)c32)c(Cl)c1OC` [Example 129, 2-chloro-4-[6-chloro-1-methyl-7,8-bis(methyloxy)-3H-pyrazolo[3,4-c]isoquinolin-5-yl]phenol], 100 to 999 nM; with `COCCOc1ccc2c(-c3ccc(O)cc3F)nc3[nH]nc(C)c3c2c1OC` [Example 130, 3-fluoro-4-(1-methyl-9-(methyloxy)-8-{[2-(methyloxy)ethyl]oxy}-3H-pyrazolo[3,4-c]isoquinolin-5-yl)phenol], at most 99 nM.

For `COCCOc1cc2c(cc1C)c(-c1ccc(O)c(Cl)c1)nc1[nH]nc(C)c12` [Example 131, 2-chloro-4-(1,7-dimethyl-8-{[2-(methyloxy)ethyl]oxy}-3H-pyrazolo[3,4-c]isoquinolin-5-yl)phenol], the half-inhibitory concentration (IC50) is at most 99 nM. With `COCCOc1cc2c(c(-c3ccc(O)cc3F)nc3[nH]nc(C)c32)c(F)c1OC` [Example 132, 3-fluoro-4-(6-fluoro-1-methyl-7-(methyloxy)-8-{[2-(methyloxy)ethyl]oxy}-3H-pyrazolo[3,4-c]isoquinolin-5-yl)phenol] the figure was at most 99 nM; with `COc1cc2c(-c3ccc(O)c(Cl)c3)nc3[nH]nc(C)c3c2cc1OC(C)C` [Example 133, 2-chloro-4-[1-methyl-8-[(1-methylethyl)oxy]-7-(methyloxy)-3H-pyrazolo[3,4-c]isoquinolin-5-yl]phenol], at most 99 nM. The compound `COc1cc2c(-c3ccc(O)c(Cl)c3)nc3[nH]nc(C)c3c2cc1OCC(C)C` [Example 134, 2-chloro-4-{1-methyl-7-(methyloxy)-8-[(2-methylpropyl)oxy]-3H-pyrazolo[3,4-c]isoquinolin-5-yl}phenol] yielded an IC50 of 100 to 999 nM. The same measure for `COCCOc1cc2c(cc1OC)c(-c1cc(Br)c(O)cc1F)nc1[nH]nc(C)c12` [Example 135, 2-bromo-5-fluoro-4-(1-methyl-7-(methyloxy)-8-{[2-(methyloxy)ethyl]oxy}-3H-pyrazolo[3,4-c]isoquinolin-5-yl)phenol]: at most 99 nM; for `COc1cc2c(-c3ccc(O)c(Cl)c3)nc3[nH]ncc3c2cc1OC` [Example 136, 4-[7,8-bis(methyloxy)-3H-pyrazolo[3,4-c]isoquinolin-5-yl]-2-chlorophenol]: 100 to 999 nM. With `COc1cc2c(-c3ccc(O)c(Cl)c3)nc3[nH]nc(C(F)(F)F)c3c2cc1OC` [Example 137, 4-[7,8-bis(methyloxy)-1-(trifluoromethyl)-3H-pyrazolo[3,4-c]isoquinolin-5-yl]-2-chlorophenol] the figure was 100 to 999 nM. The same measure for `COCc1n[nH]c2nc(-c3ccc(O)c(Cl)c3)c3cc(OC)c(OC)cc3c12` [Example 138, 4-{7,8-bis(methyloxy)-1-[(methyloxy)methyl]-3H-pyrazolo[3,4-c]isoquinolin-5-yl}-2-chlorophenol]: 100 to 999 nM.

In turn, `Cc1n[nH]c2nc(-c3ccc(O)c(Cl)c3)c3cc4c(cc3c12)OCO4` [Example 139, 2-chloro-4-(1-methyl-3H-[1,3]dioxolo[4,5-g]pyrazolo[3,4-c]isoquinolin-5-yl)phenol] gave an IC50 of at most 99 nM.

Values taken from patent US7872014B2, “Anaplastic lymphoma kinase modulators and methods of use” (Exelixis, Inc., priority 2003, dated 2011).
